Patent US8674061B2, “Multiligand constructs” (priority 2008, dated 2014)

Key:
Format in all cases: binding
Conditions in all cases: relative to 6′SLN = 1, KD based on concentration of sialic acid residues, averaged
[1] = system: influenza virus A/Nib/26/90M (H3N2)
[2] = system: influenza virus B/Nib/48/90M
[3] = system: influenza virus A/Nib/23/89M-MA (H1N1)

Neu5Acα2-6Galβ1-4GlcNAcβ-O— [6′SLN, reference compound]
1: Relative inhibitory activity of tetraligand constructs [1] | Relative inhibitory activity of triligand constructs [1] | Relative inhibitory activity of tetraligand constructs [2] | Relative inhibitory activity of triligand constructs [2] | Relative inhibitory activity of tetraligand constructs [3] | Relative inhibitory activity of triligand constructs [3]
